PubChem BioAssay (NCI)
“And” between values parts separate entries of the source, which are not always exact repeats. Equal values may be shown once.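 Five concentrations, 48 hours, 96-well plates. GI50 = concentration required for 50% inhibition of growth. TGI denotes the concentration required for complete inhibition of growth.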

Experiments:
Assay in all cases: NCI tumour cell line growth inhibition, 48 h
[1] = test system: OVCAR-8 ovarian
[2] = test system: MALME-3M melanoma
[3] = test system: UO-31 renal
[4] = test system: HCC-2998 colon
[5] = test system: MDA-MB-231 breast
[6] = test system: U251 CNS
[7] = test system: CAKI-1 renal
[8] = test system: HOP-92 NSCLC
[9] = test system: HL-60(TB) leukemia
[10] = test system: HS 578T breast

Structure (SMILES)	GI50 [1]	TGI [1]	GI50 [2]	TGI [2]	GI50 [3]	TGI [3]	GI50 [4]	TGI [4]	GI50 [5]	TGI [5]	GI50 [6]	TGI [6]	GI50 [7]	TGI [7]	GI50 [8]	TGI [8]	GI50 [9]	TGI [9]	TGI [10]	GI50 [10]
C=C(c1ccc(C(=O)NCCCn2ccnc2)cc1)c1cc2c(cc1C)C(C)(C)CCC2(C)C	2.95 µM	10.7 µM	3.2 µM	22.4 µM	3.93 µM	17.7 µM	0.419 µM	3.85 µM	1.44 µM	9.78 µM	0.288 µM	3.29 µM	1.47 µM	> 51.2 µM	1.62 µM	7.26 µM	1.06 µM	3.93 µM	–	–
COC1CCC(OS(C)(=O)=O)C(C)O1 (stereo not given)	–	> 10 µM	–	> 10 µM	–	–	–	> 10 µM	–	> 10 µM	–	> 10 µM	–	> 10 µM	–	> 10 µM	–	> 10 µM	> 10 µM	–
Cc1ccccc1NC(=O)C(=O)CC(=O)c1sc(-n2nc(-c3ccccc3)cc2-c2ccccc2)nc1C	–	> 100 µM	–	> 100 µM	–	> 100 µM	–	> 100 µM	–	–	–	> 100 µM	–	> 100 µM	–	> 100 µM	–	> 100 µM	–	–
O=C(Nc1c(Cl)cc([N+](=O)[O-])cc1Cl)C(=O)C(C(=O)c1ccncc1)C1OC(=O)c2ccccc21 (stereo not given)	–	> 100 µM	–	> 100 µM	–	> 100 µM	–	> 100 µM	–	–	–	> 100 µM	–	> 100 µM	–	> 100 µM	–	> 100 µM	–	–
CCOC(=O)C(=O)Nc1nc2ccc(OC)cc2s1	–	> 100 µM	–	> 100 µM	–	> 100 µM	–	> 100 µM	–	–	–	> 100 µM	–	> 100 µM	–	> 100 µM	–	> 100 µM	–	–
Fc1cccc(C2ON=C(c3ccccc3)N2C23CC4CC(CC(C4)C2)C3)c1 (stereo not given)	–	> 10 µM	–	> 10 µM	–	–	–	> 10 µM	–	> 10 µM	–	> 10 µM	–	> 10 µM	–	> 10 µM	–	> 10 µM	> 10 µM	–
O=C(O)c1cc2ccc(Cl)cc2c(O)c1C1=CCCCC1	–	> 100 µM	–	> 100 µM	–	> 100 µM	–	> 100 µM	–	–	–	> 100 µM	–	96.4 µM	–	85.9 µM	–	> 100 µM	–	–
Nc1c([N+](=O)[O-])ncn1C1OC(CO)C(O)C1O (stereo not given)	> 100 µM	> 100 µM	–	–	> 100 µM	> 100 µM	> 100 µM	> 100 µM	> 100 µM	> 100 µM	> 100 µM	> 100 µM	> 100 µM	> 100 µM	–	–	–	–	> 100 µM	> 100 µM
CCOc1ccc(N=Nc2c(-c3ccccc3)nn(C(=O)CC(=O)Nc3ccccc3Cl)c2-c2ccccc2)cc1	–	> 100 µM	–	> 100 µM	–	> 100 µM	–	> 100 µM	–	–	–	> 100 µM	–	> 100 µM	–	> 100 µM	–	> 100 µM	–	–
COc1cc([N+](=O)[O-])c(S(=O)(=O)O)cc1-[n+]1nc(C(=O)Nc2ccccc2)nn1-c1ccc([N+](=O)[O-])c(S(=O)(=O)[O-])c1	–	–	–	> 100 µM	–	> 100 µM	–	> 100 µM	–	> 100 µM	–	> 100 µM	–	> 100 µM	–	–	–	> 100 µM	> 100 µM	–
COC(=O)C1C(=O)NC2(C)CC1c1ccccc1O2 (stereo not given)	–	> 100 µM	–	> 100 µM	–	> 100 µM	–	> 100 µM	–	–	–	> 100 µM	–	> 100 µM	–	> 100 µM	–	> 100 µM	–	–
CC(C)(C)OC(=O)CC(S(=O)(=O)c1ccccc1)S(=O)(=O)c1ccccc1	8.32 µM	23.3 µM	2.08 µM	4.36 µM	2.9 µM	10.4 µM	16 µM	29.6 µM	12 µM	25.7 µM	17.2 µM	35.9 µM	1.66 µM	3.52 µM	–	–	3.19 µM	12.2 µM	81.4 µM	22 µM
COC(=O)c1sc(=S)c2sc(C(=O)OC)c(C(=O)OC)c2c1C(=O)OC	57.7 µM	> 100 µM	–	–	68.5 µM	> 100 µM	20.5 µM	76.1 µM	36.3 µM	> 100 µM	50.5 µM	> 100 µM	58.1 µM	> 100 µM	24.3 µM	> 100 µM	21.9 µM	62.3 µM	> 100 µM	46.5 µM
CN(C)CN(C)c1nc(N(C)C)nc(N(C)C)n1	–	> 100 µM	–	> 100 µM	–	> 100 µM	–	> 100 µM	–	–	–	> 100 µM	–	> 100 µM	–	> 100 µM	–	> 100 µM	–	–
COc1cc(COC(=O)N(C)[C@@H](Cc2ccccc2)C(=O)O)c([N+](=O)[O-])cc1OC	–	> 100 µM	–	> 100 µM	–	> 100 µM	–	> 100 µM	–	–	–	> 100 µM	–	–	–	> 100 µM	–	> 100 µM	> 100 µM	–
COc1cc2c(c(OC)c1OC)-c1ccc(SC)c(=O)cc1C(CC(=O)Oc1ccccc1F)C2 (stereo not given)	–	> 7.5 µM	–	> 7.5 µM	–	> 7.5 µM	–	0.373 µM	–	–	–	0.108 µM	–	> 7.5 µM	–	> 7.5 µM	–	1.37 µM	–	–
CC1(C)O[C@@H](CCl)C[C@@H](C#N)O1	–	> 100 µM	–	> 100 µM	–	> 100 µM	–	> 100 µM	–	–	–	> 100 µM	–	> 100 µM	–	> 100 µM	–	> 100 µM	–	–
CC[C@]1(O)C[C@@H]2CN(CCc3c([nH]c4ccccc34)[C@@](C(=O)OC)(c3cc4c(cc3OC)N(C)[C@H]3[C@@](O)(C(=O)OC)[C@H](OC(=O)CCCBr)[C@]5(CC)C=CCN6CC[C@]43[C@@H]65)C2)C1	< 0.0209 µM	> 100 µM	–	–	0.196 µM	6.55 µM	0.0132 µM	1.31 µM	–	–	0.0334 µM	> 100 µM	< 0.0206 µM	2.12 µM	0.0877 µM	3.53 µM	–	–	–	< 0.0185 µM
Cc1cn([C@H]2CN(O)C[C@@H](CO)O2)c(=O)[nH]c1=O	–	> 100 µM	–	–	–	> 100 µM	–	> 100 µM	–	> 100 µM	–	> 100 µM	–	> 100 µM	–	–	–	> 100 µM	> 100 µM	–
CC(=O)O[C@H]1C(=O)[C@@]2(C)C([C@H](OC(=O)c3ccccc3)[C@]3(O)C[C@H](OC(=O)[C@H](O)[C@@H](NC(=O)c4ccc(Cl)cc4)c4ccccc4)C(C)=C1C3(C)C)C1(OC(C)=O)CO[C@@H]1C[C@@H]2O (stereo not given in full)	–	–	0.0599 µM	25 µM and 24.1 µM	4.77 µM	25 µM and 53.8 µM	–	0.608 µM	–	25 µM	–	–	0.0269 µM	25 µM and 32.3 µM	–	–	–	0.00466 µM	0.185 µM	–
